According to PubChem BioAssay (NCI):
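Following 48 hours of exposure in 96-well plates, responses at five concentrations were used to interpolate endpoints linearly. TGI is the concentration that stops growth completely.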

Assays:
Experiment in all cases: NCI tumour cell line growth inhibition, 48 h
[1] = system: MDA-MB-435
[2] = system: SF-539 CNS
[3] = system: NCI/ADR-RES ovarian
[4] = system: U251 CNS
[5] = system: A549 NSCLC
[6] = system: NCI-H23 lung
[7] = system: SK-MEL-28 melanoma
[8] = system: NCI-H226 lung
[9] = system: TK-10 renal
[10] = system: A498 renal
[11] = system: M14 melanoma
[12] = system: HCT-116 colon
[13] = system: UACC-257 melanoma
[14] = system: NCI-H522 lung
[15] = system: EKVX NSCLC
[16] = system: HCT-15 colon
[17] = system: SF-268 CNS
[18] = system: SR leukemia
[19] = system: SNB-19 CNS
[20] = system: CAKI-1 renal
[21] = system: HS 578T breast
[22] = system: KM12 colon
[23] = system: MDA-N
[24] = system: SNB-75 CNS
[25] = system: CCRF-CEM leukemia
[26] = system: PC-3 prostate
[27] = system: T-47D breast
[28] = system: MDA-MB-231 breast
[29] = system: HOP-92 NSCLC
[30] = system: UACC-62 melanoma
[31] = system: RPMI-8226 leukemia
[32] = system: MALME-3M melanoma
[33] = system: UO-31 renal
[34] = system: HOP-62 NSCLC
[35] = system: COLO 205 colon
[36] = system: HT29 colon
[37] = system: SN12C renal
[38] = system: SK-MEL-2 melanoma
[39] = system: SK-MEL-5 melanoma
[40] = system: ACHN renal
[41] = system: SF-295 CNS
[42] = system: OVCAR-8 ovarian
[43] = system: MOLT-4 leukemia
[44] = system: IGROV1 ovarian
[45] = system: SW-620 colon
[46] = system: OVCAR-5 ovarian
[47] = system: MCF7 breast
[48] = system: K-562 leukemia
[49] = system: RXF 393 renal
[50] = system: LOX IMVI melanoma
[51] = system: HCC-2998 colon
[52] = system: 786-0 renal
[53] = system: SK-OV-3 ovarian
[54] = system: DU-145 prostate
[55] = system: OVCAR-3 ovarian
[56] = system: OVCAR-4 ovarian
[57] = system: NCI-H460 lung
[58] = system: BT-549 breast
[59] = system: HL-60(TB) leukemia

Measured: TGI

CC1CC(NN(C)C)C2(C(N)=O)C(N)=NC(=O)C12C#N (configuration not stated)
> 100 µM: [1] | [2] | [3] | [4] | [5] | [6] | [7] | [8] | [9] | [10] | [11] | [12] | [13] | [14] | [15] | [16] | [17] | [18] | [19] | [20] | [21] | [22] | [23] | [24] | [25] | [26] | [27] | [28] | [29] | [30] | [31] | [32] | [33] | [34] | [35] | [36] | [37] | [38] | [39] | [40] | [41] | [42] | [43] | [44] | [45] | [46] | [47] | [48] | [49] | [50] | [51] | [52] | [53] | [54]

COc1ccc(-n2c(=O)n(C)c(=O)n2-c2c(C)c(C)c(C)c(C)c2C)cc1
> 100 µM: [1] | [2] | [3] | [4] | [5] | [6] | [7] | [8] | [9] | [10] | [11] | [12] | [13] | [55] | [14] | [56] | [15] | [16] | [17] | [19] | [20] | [21] | [22] | [23] | [24] | [25] | [26] | [27] | [28] | [29] | [30] | [31] | [32] | [33] | [34] | [35] | [36] | [37] | [38] | [39] | [40] | [57] | [41] | [42] | [43] | [44] | [45] | [58] | [46] | [47] | [48] | [49] | [50] | [51] | [52] | [53] | [54]

NC(=O)C(=CN1CC(=O)NC1=S)C(N)=O
> 100 µM: [1] | [2] | [3] | [4] | [5] | [6] | [7] | [8] | [9] | [10] | [11] | [12] | [13] | [55] | [56] | [15] | [16] | [17] | [19] | [20] | [22] | [23] | [24] | [27] | [28] | [29] | [30] | [33] | [34] | [35] | [36] | [37] | [38] | [39] | [40] | [57] | [41] | [42] | [43] | [44] | [45] | [58] | [46] | [47] | [49] | [50] | [59] | [51] | [52] | [53] | [54]
